Experimental data as given in ChEMBL document CHEMBL1133474, “Role of hydrophobic interactions in binding S-(N-aryl/alkyl-N-hydroxycarbamoyl)glutathiones to the active site of the antitumor target enzyme glyoxalase I” (J Med Chem, 2000).

Molecular target: Lactoylglutathione lyase (Homo sapiens, UniProt Q04760)
Assay: Binding affinity for Glyoxalase I

Sequence of Lactoylglutathione lyase (Q04760 whole entry): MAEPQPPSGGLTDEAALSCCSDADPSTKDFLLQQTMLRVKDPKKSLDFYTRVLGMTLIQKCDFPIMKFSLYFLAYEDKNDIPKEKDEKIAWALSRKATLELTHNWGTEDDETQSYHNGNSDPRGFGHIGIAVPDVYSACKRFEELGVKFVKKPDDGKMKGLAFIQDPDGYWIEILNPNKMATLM

Ki [nM] | Compound
16 | CCCCCCN(O)C(=O)SC[C@H](NC(=O)CC[C@H](N)C(=O)O)C(=O)NCC(=O)O
180 | CCCCN(O)C(=O)SC[C@H](NC(=O)CC[C@H](N)C(=O)O)C(=O)NCC(=O)O
18 | CCCCCCCN(O)C(=O)SC[C@H](NC(=O)CC[C@H](N)C(=O)O)C(=O)NCC(=O)O
1180 | CCN(O)C(=O)SC[C@H](NC(=O)CC[C@H](N)C(=O)O)C(=O)NCC(=O)O
1700 | CN(O)C(=O)SC[C@H](NC(=O)CC[C@H](N)C(=O)O)C(=O)NCC(=O)O
800 | CCCN(O)C(=O)SC[C@H](NC(=O)CC[C@H](N)C(=O)O)C(=O)NCC(=O)O
170 | CCCCCN(O)C(=O)SC[C@H](NC(=O)CC[C@H](N)C(=O)O)C(=O)NCC(=O)O
183000 | N[C@@H](CCC(=O)N[C@@H](CSC(=O)NO)C(=O)NCC(=O)O)C(=O)O
